Measurements reported in patent US20040209318A1, “Reagents and methods for the detection and quantification of vancomycin in bilogical fluids” (priority 1995, published 2004).

Biological target: anti-vancomycin Fab fragment
Experiment: BIAcore solution competition, equilibrium dissociation constant
Format: binding, mouse
Settings: in solution, 20 nM Fab fragment; read-out: Equilibrium Dissociation Constant (KD)
Procedure: Biosensor surfaces were regenerated after each injection with successive 1 minute pulses of 6 M, 6M, and 1.5 M guanidine hydrochloride. Initial rates of binding of anti-vancomycin Fab fragment to the biosensor surface were measured over a 15 second window beginning 20 seconds postinjection. Data was evaluated by non-linear regression analysis using the solution affinity model built into BIAevaluation 3.0 software (BIAcore, Inc).
The binding affinities of several vancomycin analogs and tracers for anti-vancomycin Fab fragment were determined from solution competition experiments carried out on a BIAcore 2000. Initially, known concentrations of anti-vancomycin Fab fragment (0-22 nM) were injected over the aminoalkyl vancomycin biosensor surface. The initial rate of binding for each anti-vancomycin Fab fragment concentration was obtained by averaging the observed binding rate over a […] window beginning 20 seconds post injection. Data from the first 20 seconds of each sensorgram were omitted due to sample dispersion effects at the start of injections. A plot of initial binding rate versus concentration of anti-vancomycin Fab fragment was fit using a 4-parameter logistic (general model in BIAevaluation 3.0) providing a standard curve. […] A fixed concentration of anti-vancomycin Fab fragment (20 nM) was then mixed with twelve concentrations of each vancomycin analog or tracer and allowed to reach equilibrium. The equilibrium mixtures were individually injected over the aminoalkyl vancomycin biosensor surface, and the concentration of free anti-vancomycin Fab fragment remaining was quantitated by determination of the initial rate of binding to the biosensor surface as described above. A plot of free anti-vancomycin Fab fragment versus total concentration of added analog or tracer provides a competition curve. […] The data points represent the experimentally determined concentrations of free anti-vancomycin Fab fragment in equilibrium solutions at a given concentration of soluble analog or tracer. The curves represent the best nonlinear fit of the data using equation 1 (solution affinity model in BIAevaluation software) below: [formula]
where Fabτ is the concentration of free anti-vancomycin Fab fragment in equilibrium solutions, Fabτ is the total concentration of anti-vancomycin Fab fragment in solution (20 nM), A is the total concentration of added vancomycin analog or tracer, and KD is the equilibrium dissociation constant for the binding of the vancomycin analog or tracer to anti-vancomycin Fab fragment in solution.

AglucoCDP [compound 11]
Kd: ≥ 50 µM

Crystalline degradation product (CDP) [compound 10]
Kd: 0.488 ± 0.034 µM

N-acetylvancosaminylvancomycin [compound 7]
Kd: ≤ 0.0002 µM

Ring-2 dechloro CDP [compound 12]
Kd: 6 µM

Ring-2 dechlorovancomycin [compound 8]
Kd: 0.087 ± 0.004 µM

aglucovancomycin [compound 6]
Kd: 42 µM
